In article PMC7315563, “Bioactive fluorenes. Part III: 2,7-dichloro-9H-fluorene-based thiazolidinone and azetidinone analogues as anticancer and antimicrobial against multidrug resistant strains agents” (BMC Chemistry, 2020):
Converted amounts (≈) assume the structure as drawn.

Legend:
[1] = tested on: A549 human lung cancer cells; assay: cell viability assay (MTT); type: cell-based; settings: 24 h; for viability at 1 µg/mL: read-out: Validity (%) for sample concentrations (µg/mL) 1; for viability at 10 µg/mL: read-out: Validity (%) for sample concentrations (µg/mL) 10; for viability at 31.25 µg/mL: read-out: Validity (%) for sample concentrations (µg/mL) 31.25; for viability at 62.5 µg/mL: 62.50 µg/mL, read-out: Validity (%) for sample concentrations (µg/mL) 62.50; for viability at 125 µg/mL: read-out: Validity (%) for sample concentrations (µg/mL) 125; for viability at 250 µg/mL: read-out: Validity (%) for sample concentrations (µg/mL) 250; for viability at 500 µg/mL: read-out: Validity (%) for sample concentrations (µg/mL) 500; for viability at 1000 µg/mL: read-out: Validity (%) for sample concentrations (µg/mL) 1000
Protocol: WI-38 normal lung fibroblast cells, A549 lung cancer cells, and MDA-MB-231 breast cancer cells were obtained from VACSERA—Cell Culture Unit, Cairo, Egypt. The cell lines were originally obtained from the American Tissue Culture Collection (ATCC). WI-38, A549, and MDA-MB-231 cell lines were cultured in RPMI-1640 medium supplemented with 10% inactivate fetal bovine serum (FBS) and 1% penicillin/streptomycin were bought (Gibco, Invitrogen, CA). WI-38, A549, and MDA-MB-231 cells were seeded into 96-well plates (at a density of 5000 cells/well). […] Cell viability was then assessed using the MTT assay (Sigma Aldrich, St. Louis, MO, USA), and the absorbance was read at 570 nm using an ELISA microplate reader (Molecular Devices, Downingtown, PA, USA).

[2] = tested on: Escherichia coli (E. coli), multidrug resistant clinical isolate; assay: agar well diffusion assay; type: cell-based; settings: 24 h, 500 µg/mL of tested compound
Description: (§1) All microbial strains were kindly provided from the department of Medical Microbiology and Immunology faculty of Medicine Assiut University, these clinical isolates were obtained from clinical cases of infections admitted to Assiut University hospital as urinary tract infections, corneal ulcers, bacterial and fungal pneumonia, otomycosis, oral thrush and wound infections.
(§2) The clinical isolates used were multidrug resistant strains, they were resistant to β lactam (penicillin, amoxacillin, oxacillin), cephalosporins (cefazolin, cefaclor and cefepime) and macrolides (erythromycin and clarithromycin), they included Gram positive bacteria as Staphylococcus aureus (S. aureus), Methicillin-resistant Staphylococcus aureus (MRSA), Streptococcus pneumoniae (S. pneumoniae), and Gram negative bacteria as Escherichia coli (E. coli), Klebsiella pneumoniae (K. pneumoniae), Pseudomonas aeruginosa (P. aeruginosa), and Acinetobacter baumannii (A. baumannii). The fungal strains that were tested are Aspergillus flavus (A. flavus), A. niger (A. niger) and Candida albicans (C. albicans).
(§3) The antimicrobial activity of the fluorene derivatives was initially evaluated by agar well diffusion assay. Mueller–Hinton agar (CM0337) was poured into Petri dishes at 50–60 °C and left to solidify for 15 min. Subsequently, overnight microbial suspensions of tested strains was adjusted to turbidity of 0.5 McFarland Standard, which equals to 1–2 × 10^8 CFU/mL for bacteria and 1–5 × 10^6 for fungi. The microbial inoculums were then diluted in 1:100 ratio in case of bacteria and 1:10 ratio in case of fungi in order to get 1–5 × 10^5 CFU/mL. a sterile cotton swab was dipped into the adjusted microbial suspension and the Mueller–Hinton agar plates were inoculated by evenly streaking cotton swab over the agar medium. Then wells with a diameter of 0.5 cm were cut in the medium with a sterile cork borer. Stock solutions of the flourene derivatives were diluted in DMSO 1% to get 500 μg/mL concentrations. The tested flourene derivatives and controls (50 μL) were dispensed into the wells. The plates were incubated for 24 h at 37 °C for bacteria and C. albicans while at 25 °C for A. falvus and A. niger. The diameters of zones of inhibition (ZOI) around the wells were measured in mm. Following control agents were used: positive control agents—vancomycin (50 μg/mL) for Gram positive bacteria, gentamicin (10 μg/mL) (for Gram negative bacteria) and fluconazole 25 μg/mL for fungi and negative control agent is 1% DMSO.

[3] = tested on: Staphylococcus aureus (S. aureus), multidrug resistant clinical isolate; assay: agar well diffusion assay; type: cell-based; settings: Staphylococcus aureus; S. aureus; 500 µg/mL of tested compound; 24 h
Description: as §1, §2, §3

[4] = tested on: WI-38 human normal fibroblast cells; assay: cell viability assay (MTT); type: cell-based; settings: 24 h; for viability at 31.25 µg/mL: read-out: Validity (%) for sample concentrations (µg/mL) 31.25; for viability at 62.5 µg/mL: 62.50 µg/mL, read-out: Validity (%) for sample concentrations (µg/mL) 62.50; for viability at 125 µg/mL: read-out: Validity (%) for sample concentrations (µg/mL) 125; for viability at 250 µg/mL: read-out: Validity (%) for sample concentrations (µg/mL) 250; for viability at 500 µg/mL: read-out: Validity (%) for sample concentrations (µg/mL) 500
Protocol: (§4) WI-38 normal lung fibroblast cells, A549 lung cancer cells, and MDA-MB-231 breast cancer cells were obtained from VACSERA—Cell Culture Unit, Cairo, Egypt. The cell lines were originally obtained from the American Tissue Culture Collection (ATCC). WI-38, A549, and MDA-MB-231 cell lines were cultured in RPMI-1640 medium supplemented with 10% inactivate fetal bovine serum (FBS) and 1% penicillin/streptomycin were bought (Gibco, Invitrogen, CA). WI-38, A549, and MDA-MB-231 cells were seeded into 96-well plates (at a density of 5000 cells/well). On the following day, cells were treated with different concentrations (0, 1, 10, 31.25, 62.5, 125, 250, 500 µg/mL) of 16 fluorene derivatives in fresh medium and incubated for another 24 h. Cell viability was then assessed using the MTT assay (Sigma Aldrich, St. Louis, MO, USA), and the absorbance was read at 570 nm using an ELISA microplate reader (Molecular Devices, Downingtown, PA, USA).

[5] = tested on: MDA-MB-231 human breast cancer cells; assay: cell viability assay (MTT); type: cell-based; settings: 24 h; for viability at 1 µg/mL: read-out: Validity (%) for sample concentrations (µg/mL) 1; for viability at 10 µg/mL: read-out: Validity (%) for sample concentrations (µg/mL) 10; for viability at 31.25 µg/mL: read-out: Validity (%) for sample concentrations (µg/mL) 31.25; for viability at 62.5 µg/mL: read-out: Validity (%) for sample concentrations (µg/mL) 62.5; for viability at 125 µg/mL: read-out: Validity (%) for sample concentrations (µg/mL) 125; for viability at 250 µg/mL: read-out: Validity (%) for sample concentrations (µg/mL) 250; for viability at 500 µg/mL: read-out: Validity (%) for sample concentrations (µg/mL) 500
Protocol: as §4

## O=C1CSC(c2ccc[nH]2)N1c1nc(-c2cc(Cl)cc3c2-c2ccc(Cl)cc2C3)cs1 (centres unmarked) [5l, 3-(4-(2,7-Dichloro-9H-fluoren-4-yl)thiazol-2-yl)-2-(1H-pyrrol-2-yl)thiazolidin-4-one]
[1]
  viability at 1 µg/mL: 96.5%
  viability at 10 µg/mL: 93.6%
  viability at 31.25 µg/mL: 75.4%
  viability at 62.5 µg/mL: 72.2%
  viability at 125 µg/mL: 68%
  viability at 250 µg/mL: 62.9%
  viability at 500 µg/mL: 51.9%
  viability at 1000 µg/mL: 41.3%
  IC50: 577 µg/mL (≈ 1190 µM)
other
  melting point: 124 to 126 °C
[2]
  zone of inhibition at 500 µg/mL: 6 mm
[3]
  zone of inhibition at 500 µg/mL: 9 mm
[4]
  viability at 31.25 µg/mL: 70.5%
  viability at 62.5 µg/mL: 60.6%
  viability at 125 µg/mL: 57.2%
  viability at 250 µg/mL: 48.1%
  viability at 500 µg/mL: 39.5%
  IC50: 223 µg/mL (≈ 460 µM)
[5]
  viability at 1 µg/mL: 99.1%
  viability at 10 µg/mL: 87.6%
  viability at 31.25 µg/mL: 79.7%
  viability at 62.5 µg/mL: 76.2%
  viability at 125 µg/mL: 72.4%
  viability at 250 µg/mL: 64.6%
  viability at 500 µg/mL: 57.8%
  IC50: > 500 µg/mL

## O=C1CSC(c2ccncc2)N1c1nc(-c2cc(Cl)cc3c2-c2ccc(Cl)cc2C3)cs1 (centres unmarked) [5m, 3-(4-(2,7-Dichloro-9H-fluoren-4-yl)thiazol-2-yl)-2-(pyridin-4-yl)thiazolidin-4-one]
[1]
  viability at 1 µg/mL: 94%
  viability at 10 µg/mL: 92.5%
  viability at 31.25 µg/mL: 70.7%
  viability at 62.5 µg/mL: 67.5%
  viability at 125 µg/mL: 64.5%
  viability at 250 µg/mL: 56.5%
  viability at 500 µg/mL: 37.3%
  viability at 1000 µg/mL: 20.1%
  IC50: 357 µg/mL (≈ 719 µM)
other
  melting point: 110 to 112 °C
[2]
  zone of inhibition at 500 µg/mL: 8 mm
[3]
  zone of inhibition at 500 µg/mL: 5 mm
[4]
  viability at 31.25 µg/mL: 68.5%
  viability at 62.5 µg/mL: 64.6%
  viability at 125 µg/mL: 42.3%
  viability at 250 µg/mL: 40.3%
  viability at 500 µg/mL: 26.5%
  IC50: 92 µg/mL (≈ 185 µM)
[5]
  viability at 1 µg/mL: 97.3%
  viability at 10 µg/mL: 89.5%
  viability at 31.25 µg/mL: 85.4%
  viability at 62.5 µg/mL: 88.3%
  viability at 125 µg/mL: 76.9%
  viability at 250 µg/mL: 65.6%
  viability at 500 µg/mL: 50.6%
  IC50: 505 µg/mL (≈ 1020 µM)

## COc1ccc(C2C(Cl)C(=O)N2c2nc(-c3cc(Cl)cc4c3-c3ccc(Cl)cc3C4)cs2)cc1 (centres unmarked) [6b, 3-Chloro-1-(4-(2,7-dichloro-9H-fluoren-4-yl)thiazol-2-yl)-4-(4-methoxyphenyl)azetidin-2-one]
[1]
  viability at 1 µg/mL: 95.7%
  viability at 10 µg/mL: 86.9%
  viability at 31.25 µg/mL: 85.8%
  viability at 62.5 µg/mL: 83.5%
  viability at 125 µg/mL: 77.8%
  viability at 250 µg/mL: 68.2%
  viability at 500 µg/mL: 35.2%
  viability at 1000 µg/mL: 36.3%
  IC50: 338 µg/mL (≈ 640 µM)
other
  melting point: 110 to 112 °C
[2]
  zone of inhibition at 500 µg/mL: 12 mm
[4]
  viability at 31.25 µg/mL: 94.1%
  viability at 62.5 µg/mL: 87.9%
  viability at 125 µg/mL: 71.6%
  viability at 250 µg/mL: 62.6%
  viability at 500 µg/mL: 57.7%
  IC50: > 500 µg/mL
[5]
  viability at 1 µg/mL: 95.9%
  viability at 10 µg/mL: 93.4%
  viability at 31.25 µg/mL: 89.7%
  viability at 62.5 µg/mL: 84.2%
  viability at 125 µg/mL: 79.8%
  viability at 250 µg/mL: 72.9%
  viability at 500 µg/mL: 68.9%
  IC50: > 500 µg/mL
